The data set in a line: Permittivity (Q, e′, e″) by impedance analyzer, capacitance method. The class given is physicochemical. The following applies: 27 MHz. The text has this: The property of permittivity is the measure of the resistance to forming an electric field. For purposes of comparing materials in air, it is often convenient to describe the permittivity of material in air where the permittivity is more specifically called “relative permittivity” or €r. This is a complex number represented by the following equation: €r=e′−je″ where e′ (the real portion of the complex number) is the dielectric constant (energy storage) and e″ (the imaginary portion of the complex number) is the dielectric loss or dissipation factor (energy dissipated as heat). The ratio of dielectric loss (e″) over the dielectric constant (e′) is called the loss tangent (tan δ) or power factor. […] The Q value is affected by physical and chemical properties such as density (porosity/particle size), moisture (conductivity), temperature, and molecular polarizability. The measurements obtained by this method can eliminate the need to measure and evaluate these properties independently.
Permittivity values (Q, e′, e″) were measured using an Agilent Impedance Analyzer at 27Mhz using a capacitance method wherein a fixture with a bottom fixed plate and top adjustable plate with a torque limiter which lightly compresses a cylindrical sample container to remove any air. During testing, the container is over filled with material and then carefully leveled off to avoid void spaces. A lid is placed on top to temporarily seal material within the container. Once a measurement is made, custom software calculates the difference between the sample and the configuration empty.

The structures appear in SMILES notation. Where “and” joins values, the source holds several entries; their conditions need not be identical. Equal values may be shown once.

`OC[C@@H](O)[C@@H](O[C@H]1O[C@H](CO)[C@@H](O)[C@H](O)[C@H]1O)[C@H](O)[C@@H](O)CO` [Maltitol, NF (SweetPearl P300DC), Maltitol]: under “Table 1A”, the “Loss Tangent” value came to 0.0035, the “e′” value was 1.703 and the “e″” value came to 0.006. Under “Table 1B”, the “Loss Tangent” value came out at 0.0022, the “e′” value was found to be 1.6214 and the “e″” value came out at 0.0035.
For the compound `OC[C@@H](O)[C@@H](O)[C@H](O)[C@H](O)CO` [Mannitol NF (Pearlitol 200SD), Mannitol], for the setting “Table 1A”, the “Loss Tangent” value is given as 0.0028, the “e′” value worked out at 1.410 and the “e″” value turned out to be 0.004.
For `OC[C@@H](O)[C@@H](O)[C@H](O)[C@@H](O)CO` [Sorbitol Powder, NF, Sorbitol], where the note is “Table 1A”, the “Loss Tangent” value is 0.0358 and 0.0462 and 0.0361; the “e′” value was 1.960 and 2.097 and 1.803; the “e″” value was 0.0701 and 0.0969 and 0.0650.
